A word on the logP: it is a log measure of how a compound divides between an organic and an aqueous phase.

Structures are written as SMILES.

This data set can be described thus: physchem. The note with it: octanol/water.

Description: Lipophilicity, log P of the compound

In the case of `c1ccc(Oc2ccccc2)cc1`, the logP turned out to be 4.2.

The record behind these values is ChEMBL document CHEMBL1150267, “Synthesis and screening of mono- and di-aryl technetium and rhenium metallocarboranes. A new class of probes for the estrogen receptor” (J Med Chem, 2008).
